These are literature values, as cited in patent US10934346B2, “Modified T cell comprising a polynucleotide encoding an inducible stimulating molecule comprising MyD88, CD40 and FKBP12” (priority 2014, dated 2021).

In this data set the test system is CD40-dependent signaling cascades. As to conditions: mouse, in vivo; cited from earlier work.

As for `CC[C@H](C(=O)N1CCCC[C@H]1C(=O)O[C@H](CCc1ccc(OC)c(OC)c1)c1cccc(OCC(=O)NCC(CNC(=O)COc2cccc([C@@H](CCc3ccc(OC)c(OC)c3)OC(=O)[C@@H]3CCCCN3C(=O)[C@@H](CC)c3cc(OC)c(OC)c(OC)c3)c2)CN(C)C)c1)c1cc(OC)c(OC)c(OC)c1` [AP20187], the “induction of signaling in DCs” value is “led to the in vivo induction of CD40-dependent signaling cascades in murine DCs”.
